Results: patent US20060276498A1 (Wyeth, priority 2005, published 2006)

Target: T1, human Cot/Tpl2 kinase (Homo sapiens, UniProt P41279)
T1 construct: human Cot/Tpl2 kinase construct encoding residues 30-398; 6His (N); made in house; host or cells: Sf9 insect cells (baculovirus system, BD Biosciences)
Assay: Tpl2/Cot kinase assay, GST-MEK1 phosphorylation detected by ELISA (DELFIA Eu)
Assay type: biochemical
Conditions: Table 2; additional representative compounds

T1 sequence (P41279 30-398): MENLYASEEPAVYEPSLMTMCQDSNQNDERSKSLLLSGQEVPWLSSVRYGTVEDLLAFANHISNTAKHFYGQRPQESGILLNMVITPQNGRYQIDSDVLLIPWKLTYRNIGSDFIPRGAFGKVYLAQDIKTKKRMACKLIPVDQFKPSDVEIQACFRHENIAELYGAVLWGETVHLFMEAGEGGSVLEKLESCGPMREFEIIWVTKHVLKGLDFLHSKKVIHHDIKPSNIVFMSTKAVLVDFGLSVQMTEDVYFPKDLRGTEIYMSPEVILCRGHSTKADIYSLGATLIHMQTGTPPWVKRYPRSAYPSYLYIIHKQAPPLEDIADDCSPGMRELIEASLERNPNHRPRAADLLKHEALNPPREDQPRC

| Structure (SMILES) | IC50 |
| --- | --- |
| N#Cc1cnc2cnc(F)cc2c1Nc1cccc(I)c1 [Example 104, 6-fluoro-4-[(3-iodophenyl)amino]-1,7-naphthyridine-3-carbonitrile] | > 40000 nM |
| N#Cc1cnc2cnc(F)cc2c1Nc1cccc([N+](=O)[O-])c1 [Example 105, 6-fluoro-4-[(3-nitrophenyl)amino]-1,7-naphthyridine-3-carbonitrile] | > 10000 nM |
| N#Cc1cnc2cnc(NCc3cccnc3)cc2c1NC1CC1 [Example 111, 4-(cyclopropylamino)-6-[(pyridin-3-ylmethyl)amino]-1,7-naphthyridine-3-carbonitrile] | 2800 nM |
| N#Cc1cnc2cnc(NCc3cccnc3)cc2c1NC1CCCC1 [Example 112, 4-(cyclopentylamino)-6-[(pyridin-3-ylmethyl)amino]-1,7-naphthyridine-3-carbonitrile] | 320 nM |
| CC(Nc1cc2c(Nc3ccc(F)c(Cl)c3)c(C#N)cnc2cn1)c1ccccc1 (centres unmarked) [Example 115, 4-[(3-chloro-4-fluorophenyl)amino]-6-[(1-phenylethyl)amino]-1,7-naphthyridine-3-carbonitrile] | > 40000 nM |
| N#Cc1cnc2cnc(NCc3cccnc3)cc2c1NC1CCNCC1 [Example 116, 4-(piperidin-4-ylamino)-6-[(pyridin-3-ylmethyl)amino]-1,7-naphthyridine-3-carbonitrile] | > 40000 nM |
| N#Cc1cnc2cnc(NCc3ccncc3)cc2c1Nc1ccc(F)c(Cl)c1 [Example 119, 4-(3-chloro-4-fluorophenylamino)-6-(pyridin-4-ylmethylamino)-1,7-naphthyridine-3-carbonitrile] | 31 nM |
| N#Cc1cnc2cnc(NCCN3CCCCC3)cc2c1Nc1ccc(F)c(Cl)c1 [Example 122, 4-[(3-chloro-4-fluorophenyl)amino]-6-[(2-piperidin-1-ylethyl)amino]-1,7-naphthyridine-3-carbonitrile] | 2500 nM |
| COc1ccccc1CNc1cc2c(Nc3ccc(F)c(Cl)c3)c(C#N)cnc2cn1 [Example 124, 4-[(3-chloro-4-fluorophenyl)amino]-6-[(2-methoxybenzyl)amino]-1,7-naphthyridine-3-carbonitrile] | 370 nM |
| N#Cc1cnc2cnc(NCc3c(Cl)cccc3Cl)cc2c1NCc1c(Cl)cccc1Cl [Example 127, 4,6-bis[(2,6-dichlorobenzyl)amino]-1,7-naphthyridine-3-carbonitrile] | > 40000 nM |
| N#Cc1cnc2cnc(F)cc2c1Nc1ccc(OC(F)(F)F)cc1 [Example 128, 6-fluoro-4-{[4-(trifluoromethoxy)phenyl]amino}-1,7-naphthyridine-3-carbonitrile] | > 40000 nM |
| CCN1CCC[C@H]1CNc1cc2c(NC3CCCC3)c(C#N)cnc2cn1 [Example 129, 4-(cyclopentylamino)-6-({[(2S)-1-ethylpyrrolidin-2-yl]methyl}amino)-1,7-naphthyridine-3-carbonitrile] | 2800 nM |
| CC(C)(C)Nc1c(C#N)cnc2cnc(NCc3ccc(S(C)(=O)=O)cc3)cc12 [Example 130, 4-(tert-butylamino)-6-{[4-(methylsulfonyl)benzyl]amino}-1,7-naphthyridine-3-carbonitrile] | 4600 nM |
| C[C@@H](Nc1cc2c(N[C@H](C)c3ccccc3)c(C#N)cnc2cn1)c1ccccc1 [Example 131, 4,6-bis{[(1R)-1-phenylethyl]amino}-1,7-naphthyridine-3-carbonitrile] | 560 nM |
| C[C@@H](Nc1cc2c(NC3CCCCCC3)c(C#N)cnc2cn1)c1ccccc1 [Example 133, 4-(cycloheptylamino)-6-{[(1R)-1-phenylethyl]amino}-1,7-naphthyridine-3-carbonitrile] | 920 nM |
| CCC(C)(C)Nc1c(C#N)cnc2cnc(NCc3cccnc3)cc12 [Example 135, 4-[(1,1-dimethylpropyl)amino]-6-[(pyridin-3-ylmethyl)amino]-1,7-naphthyridine-3-carbonitrile] | 100 nM |
| CN(c1c(C#N)cnc2cnc(F)cc12)C1CCCCCC1 [Example 136, 4-[cycloheptyl(methyl)amino]-6-fluoro-1,7-naphthyridine-3-carbonitrile] | 360 nM |
| C[C@@H](Nc1cc2c(N(C)C3CCCCCC3)c(C#N)cnc2cn1)c1ccccc1 [Example 137, 4-[cycloheptyl(methyl)amino]-6-{[(1R)-1-phenylethyl]amino}-1,7-naphthyridine-3-carbonitrile] | > 40000 nM |
| C#CC(C)(C)Nc1c(C#N)cnc2cnc(NCc3cccnc3)cc12 [Example 138, 4-[(1,1-dimethylprop-2-ynyl)amino]-6-[(pyridin-3-ylmethyl)amino]-1,7-3-carbonitrile] | > 40000 nM |
| N#Cc1cnc2cnc(Nc3c[nH]cn3)cc2c1Nc1ccc(F)c(Cl)c1 [Example 140, 4-[(3-chloro-4-fluorophenyl)amino]-6-{[4(5)imidazolyl]amino}-1,7-naphthyridine-3-carbonitrile] | 79 nM |
| N#Cc1cnc2cnc(NC3CCCCCC3)cc2c1Nc1ccc(F)c(Cl)c1 [Example 144, 4-[(3-chloro-4-fluorophenyl)amino]-6-(cycloheptylamino)-1,7-naphthyridine-3-carbonitrile] | 5200 nM |

Further lines, results first:

| IC50 | Structure (SMILES) |
| --- | --- |
| > 40000 nM | N#Cc1cnc2cnc(F)cc2c1Nc1ccc2[nH]ccc2c1 [Example 102, 6-fluoro-4-(1H-indol-5-ylamino)-1,7-naphthyridine-3-carbonitrile] |
| 300 nM | N#Cc1cnc2cnc(F)cc2c1Nc1ccc(Cc2ccccc2)cc1 [Example 106, 4-[(4-benzylphenyl)amino]-6-fluoro-1,7-naphthyridine-3-carbonitrile] |
| > 10000 nM | CN(c1ccc(F)c(Cl)c1)c1c(C#N)cnc2cnc(F)cc12 [Example 107, 4-[(3-chloro-4-fluorophenyl)(methyl)amino]-6-fluoro-1,7-naphthyridine-3-carbonitrile] |
| > 10000 nM | CN(C)CCNc1cc2c(Nc3ccc(Cc4ccccc4)cc3)c(C#N)cnc2cn1 [Example 108, 4-[(4-benzylphenyl)amino]-6-{[2-(dimethylamino)ethyl]amino}-1,7-naphthyridine-3-carbonitrile] |
| 630 nM | CC(C)(C)Nc1c(C#N)cnc2cnc(NCc3cccnc3)cc12 [Example 110, 4-(tert-butylamino)-6-[(pyridin-3-ylmethyl)amino]-1,7-naphthyridine-3-carbonitrile] |
| 160 nM | N#Cc1cnc2cnc(NCc3cccnc3)cc2c1NC1CCCCCC1 [Example 113, 4-(cycloheptylamino)-6-[(pyridin-3-ylmethyl)amino]-1,7-naphthyridine-3-carbonitrile] |
| 470 nM | N#Cc1cnc2cnc(NCc3cccnc3)cc2c1NC1CCCCC1 [Example 114, 4-(cyclohexylamino)-6-[(pyridin-3-ylmethyl)amino]-1,7-naphthyridine-3-carbonitrile] |
| 2400 nM | N#Cc1cnc2cnc(NCCN3CCN(Cc4ccccc4)CC3)cc2c1Nc1ccc(F)c(Cl)c1 [Example 117, 6-(2-(4-benzylpiperazin-1-yl)ethylamino)-4-(3-chloro-4-fluorophenylamino)-1,7-naphthyridine-3-carbonitrile] |
| 1200 nM | CC(C)(Nc1cc2c(Nc3ccc(F)c(Cl)c3)c(C#N)cnc2cn1)c1ccccc1 [Example 118, 4-[(3-chloro-4-fluorophenyl)amino]-6-[(1-methyl-1-phenylethyl)amino]-1,7-naphthyridine-3-carbonitrile] |
| 230 nM | N#Cc1cnc2cnc(NCCc3ccc(S(N)(=O)=O)cc3)cc2c1Nc1ccc(F)c(Cl)c1 [Example 120, 4-(2-(4-(3-chloro-4-fluorophenylamino)-3-cyano-1,7-naphthyridin-6-ylamino)ethyl)benzenesulfonamide] |
| 430 nM | N#Cc1cnc2cnc(NCc3cccc(Br)c3)cc2c1Nc1ccc(F)c(Cl)c1 [Example 121, 6-[(3-bromobenzyl)amino]-4-[(3-chloro-4-fluorophenyl)amino]-1,7-naphthyridine-3-carbonitrile] |
| 130 nM | N#Cc1cnc2cnc(NCc3ccccn3)cc2c1Nc1ccc(F)c(Cl)c1 [Example 123, 4-(3-chloro-4-fluorophenylamino)-6-(pyridin-2-ylmethylamino)-1,7-naphthyridine-3-carbonitrile] |
| 23 nM | CS(=O)(=O)c1ccc(CNc2cc3c(Nc4ccc(F)c(Cl)c4)c(C#N)cnc3cn2)cc1 [Example 125, 4-[(3-chloro-4-fluorophenyl)amino]-6-{[4-(methylsulfonyl)benzyl]amino}-1,7-naphthyridine-3-carbonitrile] |
| 24600 nM | N#Cc1cnc2cnc(NCc3c(Cl)cccc3Cl)cc2c1Nc1ccc(F)c(Cl)c1 [Example 126, 4-[(3-chloro-4-fluorophenyl)amino]-6-[(2,6-dichlorobenzyl)amino]-1,7-naphthyridine-3-carbonitrile] |
| 16900 nM | CS(=O)(=O)c1ccc(CNc2cc3c(NCc4ccc(S(C)(=O)=O)cc4)c(C#N)cnc3cn2)cc1 [Example 132, 4,6-bis{[4-(methylsulfonyl)benzyl]amino}-1,7-naphthyridine-3-carbonitrile] |
| 270 nM | Cn1nc(C(C)(C)C)cc1Nc1c(C#N)cnc2ccc(N)cc12 [Example 139, 6-amino-4-[(3-tert-butyl-1-methyl-1H-pyrazol-5-yl)amino]quinoline-3-carbonitrile] |
| > 40000 nM | CCC(C)(C)Nc1c(C#N)cnc2cnc(F)cc12 [Example 141, 4-[(1,1-dimethylpropyl)amino]-6-fluoro-1,7-naphthyridine-3-carbonitrile] |
| 28000 nM | C#CC1(Nc2c(C#N)cnc3cnc(F)cc23)CCCCC1 [Example 142, 4-[(1-ethynylcyclohexyl)amino]-6-fluoro-1,7-naphthyridine-3-carbonitrile] |
| > 40000 nM | CC(C)(C)Nc1cc2c(Nc3ccc(F)c(Cl)c3)c(C#N)cnc2cn1 [Example 143, 6-(tert-butylamino)-4-[(3-chloro-4-fluorophenyl)amino]-1,7-naphthyridine-3-carbonitrile] |
| > 40000 nM | N#Cc1cnc2cnc(NCc3cccnc3)cc2c1NCc1cccnc1 [Example 145, 4,6-bis(pyridin-3-ylmethylamino)-1,7-naphthyridine-3-carbonitrile] |
